Experimental findings from article PMC10400593, “Molecular insights into Spindlin1-HBx interplay and its impact on HBV transcription from cccDNA minichromosome” (Nature Communications, 2023) are described below.

“And” between values parts separate entries of the source, which are not always exact repeats. Identical values can stand only once. “Also recorded” adds a separate entry of the source. Like-named read-outs stand apart in the source and are kept apart here. Where no end group is shown, it is not given here.

Test [1] concerns the target T1, human Spindlin1_50–262 (Homo sapiens, UniProt Q9Y657). It is filed as binding. The arrangement: Human Spindlin1_50–262 was cloned into pGEX-6P-1 vector containing an N-terminal GST tag; GST (N, cleaved yes); made in house; host or cells: E. coli BL21(DE3). As to conditions: 25 °C; for N: ITC stoichiometry, free wild-type Spindlin1_50–262; for N / ΔH / K (association constant): mean ± SE; for ΔS / ΔH / K (association constant): ITC, pH 7.5, free wild-type Spindlin1_50–262; for K (association constant): One Set of Binding Sites fit. How it is done:
Cells were harvested and lysed in lysis buffer: 0.2 M NaCl, 20 mM Tris, pH 8.0 containing 1 mM fresh PMSF. After centrifugation, the GST-tagged Spindlin1_50–262 was purified by a GST affinity column and then the GST tag was cleaved on-column by a home-made P3C protease overnight. The tag-free protein was collected for an anion-exchange chromatography over a HiTrap Q HP column and Superdex G75 columns (GE Healthcare). The Spindlin1_50–262 protein was concentrated to 25 mg/ml in 0.15 M NaCl, 20 mM Tris, pH 8.0, aliquoted and stored at −80 °C for future use. All Spindlin1_50–262 mutants were generated by the QuikChange site-directed mutagenesis strategy and purified using the same procedure as described above.
(§1) Calorimetric experiments were conducted at 25 °C with a MicroCal PEAQ-ITC instrument (Malvern Instruments) as previously described. The Spindlin1_50–262 samples were extensively dialyzed against the buffer containing 20 mM HepesNa (pH 7.5) and 150 mM NaCl. Protein concentration was determined by absorbance spectroscopy at 280 nm. Peptide concentrations were determined by weighing in large quantities. Each ITC titration consisted of 17 successive injections with 0.4 μl for the first and 2.4 μl for the rest. The intervals between injections were 180 s, and the stirring speed was 750 rpm. […] Acquired calorimetric titration data were fitted at 95% confidence and analyzed using Origin 7.0 (GE Healthcare) using the One Set of Binding Sites fitting model. Data represent the mean ± SE. Detailed thermodynamic parameters of each titration are summarized in the Supplementary Table 2.

Test [2] deals with Spindlin1_50-262 & HBx2-21 (Homo sapiens, UniProt Q9Y657). To be noted: ITC; for N / ΔH: mean ± SE; for K (association constant): 25 °C, pH 7.5, mean ± SE. Here is the method: Cells were harvested and lysed in lysis buffer: 0.2 M NaCl, 20 mM Tris, pH 8.0 containing 1 mM fresh PMSF. […] The tag-free protein was collected for an anion-exchange chromatography over a HiTrap Q HP column and Superdex G75 columns (GE Healthcare).
as §1, with “Protein” for “Calorimetric experiments were conducted at 25 °C with a MicroCal PEAQ-ITC instrument (Malvern Instruments) as previously described. The Spindlin1_50–262 samples were extensively dialyzed against the buffer containing 20 mM HepesNa (pH 7.5) and 150 mM NaCl. Protein”

Test [3] addresses T1, human Spindlin1_50–262. The test can be described thus: ITC.
Test [4] concerns HBeAg. To be noted: ectopic expression in Spindlin1 knockdown cells. How it is done:
(§2) Mutations in full-length Spindlin1 were generated by site-directed mutagenesis and confirmed by DNA sequencing. Plasmid DNA and siRNA transfections were performed using Lipofectamine 3000 reagent (Invitrogen) and Lipofectamine RNAiMAX (Invitrogen) according to the manufacturer’s protocol, respectively.
For infections, cells were incubated with viral supernatants in the presence of 10 µg/ml polybrene.
For siRNA knockdown experiments of HepG2-NTCP cells, the siRNAs (sequences are listed in the Supplementary Table 4) were transfected at 3dpi, and incubated with cells for 24 h. Then the cells were maintained in PMM with 2% FBS with regular medium changing every other day. For cccDNA formation experiment, the siRNAs were transfected 48 h before infection and incubated with cells for 24 h. Then the cells were cultured with PMM medium for another […]. The cells were then infected with HBV at 800GEQ in the presence of 5% PEG8000 for 24 h at 37 °C.
HBeAg levels of HBV infected cells were measured using ELISA kits (Wantai Pharm Inc). Supernatants from HBV infected cells were harvested at each time point examined in the various assays and were diluted 4-fold with DMEM before ELISA.

The test system of test [5] is HBx. To be noted: Huh7 cells, 48 h after co-transfection, WB. Here is the method: as §2
Test [6] concerns HBV RNA. The test can be described thus: Rescue of HBV transcription/expression in Spindlin1 knockdown HepG2-NTCP cells. It is filed as cell-based. To be noted: ectopic expression in Spindlin1 knockdown cells. Here is the method: Cells were harvested with TRIzol™ Reagent (Invitrogen, Carlsbad, CA). The RNA was extracted and precipitated with equal volumes of isopropanol. The RNA pellet was washed with 75% ethanol and dissolved in DEPC-treated H2O. The RNA solution with 1xRNA loading buffer was incubated at 65 °C heat block for 5 min and put on ice for 5 min. Then the RNA sample was subjected to 1.2% agarose gel electrophoresis (with 1xMOPS buffer and 5% formaldehyde solution) and transferred onto Amersham Hybond-N+ membrane (GE Healthcare). After UV crosslinking, the RNA was detected with DIG-labeled full-length HBV genome and DIG-labeled GAPDH probe (DIG-high prime DNA-labeling and detection starter kit II, Roche, cat. No. 11585614910).

Test [7] has as its target T2, Human Spindlin1 50-262 (human, UniProt Q9Y657 50-262).
T2 construct: also called SPIN1; not shown: GST, N-terminal, cleaved
The test can be described thus: ITC. To be noted: both partners purified.

In test [8] the target is T2, Human Spindlin1 50-262. The test is described as follows: ITC. To be noted: both partners purified. This is another data set of the same source.
Test [9] concerns the target T2, Human Spindlin1 50-262. The test is described as follows: ITC. To be noted: both partners purified. The source holds these as a separate data set.
Test [10] has as its target T2, Human Spindlin1 50-262. The test is described as follows: ITC. As to conditions: both partners purified. This is another data set of the same source.
[11] abbreviates: listed as wild-type (WT) Spindlin1.

Sequence of Spindlin1_50-262 & HBx2-21 (Q9Y657 whole entry, looked up): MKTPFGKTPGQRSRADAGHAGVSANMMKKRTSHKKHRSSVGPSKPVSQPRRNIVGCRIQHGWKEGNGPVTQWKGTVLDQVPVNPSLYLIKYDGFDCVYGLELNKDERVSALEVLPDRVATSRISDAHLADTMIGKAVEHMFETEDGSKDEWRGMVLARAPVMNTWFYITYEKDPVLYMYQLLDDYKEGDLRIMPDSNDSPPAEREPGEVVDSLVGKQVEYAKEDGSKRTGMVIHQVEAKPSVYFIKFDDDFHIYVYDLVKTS
T2 sequence (Q9Y657 50-262): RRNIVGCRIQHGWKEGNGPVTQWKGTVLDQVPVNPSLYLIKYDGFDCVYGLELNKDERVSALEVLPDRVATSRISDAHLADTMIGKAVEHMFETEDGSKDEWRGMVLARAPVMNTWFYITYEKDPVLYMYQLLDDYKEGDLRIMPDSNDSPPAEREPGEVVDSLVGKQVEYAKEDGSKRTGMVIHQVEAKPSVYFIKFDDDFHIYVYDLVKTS
T1 sequence (Q9Y657 50-262): as above

As to “Ac-GKGGAKRHRK (me3)VLRDNIQGIT-NH2 [H411-30 K20me3]”, in test [1], the N is 1.0± 0.016, the ΔS is given as -12.3 cal/mol/deg and the ΔH was -12920± 254.2 kal/mol. Moreover, in test [2], the N is 0.9± 0.010 and 1.0± 0.001.

In test [3], HBx_(11–30) peptide yielded a fold weaker binding than HBx (2–21) of 44 fold.

In [1], “AARLCCQLDPARDVLCLRPV-NH2 [HBx-D2-21, HBx-D N-terminal motif peptide]” showed a ΔS of 18.0 cal/mol/deg and a ΔH of -3096± 42.71 kal/mol.

As to K216S/V218R double mutant, the “Restoration of HBeAg levels” value in [4] is listed as “not the K216S/V218R double mutant that effectively restored”. In addition, the “Interaction with HBx (Co-IP)” value in [5] was “disrupted Spindlin1-HBx engagement both in vitro and in cellular context”; in test [5] (listed as Spindlin1 K216S/V218R), “significantly compromised”.

As to “ARTK(m e3)QTAR(me2a)KSTGGKAPRKQL-NH2 [H31-20 K4me3R8me2a]”, in [1], the N is listed as 1.0± 0.004, the ΔS is reported as -23.6 cal/mol/deg, the “K (association constant)” value amounted to 3.2e+07 ± 5.15e+06 M⁻¹ and the ΔH is -17280± 115.8 kal/mol. In test [2], the ΔS is -22.0 cal/mol/deg, the “K (association constant)” value was found to be 4.74e+07 ± 7.62e+06 M⁻¹, the N is 1.0± 0.003 and the ΔH was -17040± 96.9 kal/mol.

For the molecule “wild-type Spindlin1: ectopically expressed wild-type Spindlin1”, the “Restoration of HBeAg levels” value in test [4] was “effectively restored the levels of HBV transcription and HBeAg”; in test [4] (setting [11]) it was “restore the levels of HBV transcription and HBeAg”. Moreover, the “Restoration of HBV transcription/expression” value in test [6] is “effectively restored the levels of HBV transcription and HBeAg; also recorded: restored HBV expression”; in [6] (setting [11]), “restore the levels of HBV transcription and HBeAg”.

In test [1], Ac-PARDVLCLRPIGAESRGRPL-NH2 [HBx11-30] came in with a ΔS of 8.2 cal/mol/deg and a ΔH of -3496± 197.8 kal/mol.

For “Ac-CSFSSAGPCALRFTSARRME-NH2 [HBx61-80, HBx array peptide]”, in test [1], the ΔS is -1.7 cal/mol/deg and the ΔH is -6319± 252.7 kal/mol.

The molecule “HBx_(2–21) peptide (from UniProt Q69607) L18R” gave a Kd in [3] of 35.8 µM. This lies in the double-digit micromolar range.

For the molecule HBx_(61–80) peptide, the fold weaker binding than HBx (2–21) in [3] came out at 55 fold.

Consider “AARLCCQLDSARDVLLLRPF-NH2 [WHx, woodchuck HBx N-terminal motif peptide]”, for which, in test [1], the ΔS worked out at 9.96 cal/mol/deg and the ΔH is reported as -4600± 130.4 kal/mol.

“HBx_(2–21) peptide (from UniProt Q69607) V15R” registered an equilibrium dissociation constant (Kd) in [3] of 14.4 µM.

Regarding W72R, in [6], the “Restoration of HBV transcription/expression” value is “not its H3K4me3 and H3K9me3-binding deficient mutants”.

For “ARTK(m e3)QTARK(me2)STGGKA-NH2 [H31-15 K4me3K9me2]”, in test [1], the N came out at 1.0± 0.002, the ΔS is -15.3 cal/mol/deg, the “K (association constant)” value is 4.18e+07 ± 4.82e+06 M⁻¹ and the ΔH was -14960± 61.22 kal/mol. Also, in [2], the ΔS is listed as -12.1 cal/mol/deg, the “K (association constant)” value is 1.74e+08 ± 9.28e+07 M⁻¹, the N is 1.0± 0.004 and the ΔH is -14860± 139.6 kal/mol.

In [1], “AARLCCQLDSSRDVLLLRPL-NH2 [GSHBx, ground squirrel HBx N-terminal motif peptide]” displayed a ΔS of 25.3 cal/mol/deg and a ΔH of -987.3± 23.4 kal/mol.

Regarding HBx2-21 V15R peptide, the stoichiometry N in test [3] was determined as 1.

B1: WHx2-21 peptide (woodchuck HBx) (peptide)
peptide: AARLCCQLDSARDVLLLRPF-NH2
modifications: cysteine pairing not given here
notes: also called FWHx; source: synthetic peptide, bought: Scilight Biotechnology LLC
Consider B1, for which the equilibrium dissociation constant (Kd) in [7] stood at 2.9 µM. Also, in [8], the Ka was determined as 354000 M⁻¹ and the “stoichiometry N” value is 0.9.

B2: GSHBx2-21 peptide (ground squirrel HBx) (peptide)
peptide: AARLCCQLDSSRDVLLLRPL-NH2
modifications: cysteine pairing not given here
notes: source: synthetic peptide, bought: Scilight Biotechnology LLC
On to B2, for which the dissociation constant (Kd) in [7] stood at 0.62 µM. In addition, in [8], the Ka stood at 1.83e+06 M⁻¹ and the “stoichiometry N” value came out at 1.1.

B3: HBx-D2-21 peptide (peptide)
peptide: AARLCCQLDPARDVLCLRPV-NH2
modifications: cysteine pairing not given here
notes: as for B2
Turning to B3, the Kd in test [7] came to 0.7 µM. Also, in [8], the Ka stood at 1.56e+06 M⁻¹ and the “stoichiometry N” value was found to be 0.951.

B4: HBx11-30 peptide (peptide)
peptide: Ac-PARDVLCLRPIGAESRGRPL-NH2
notes: as for B2
As to B4, in [8], the Ka was found to be 22600 M⁻¹ and the “stoichiometry N” value amounted to 1.2. Besides, in [9], binding was characterised by a dissociation constant (Kd) of 45.9 µM.

B5: H3 1-15 K4me3K9me2 peptide (peptide)
peptide: ARTK(me3)QTARK(me2)STGGKA
notes: also called H3K4me3K9me2; source: synthetic peptide, bought: Scilight Biotechnology LLC
As for B5, the Ka in test [8] was 4.18e+07 M⁻¹. This molecule returned a Kd in test [10] of 0.0242 µM.

B6: HBx61-80 peptide (peptide)
peptide: Ac-CSFSSAGPCALRFTSARRME-NH2
modifications: cysteine pairing not given here
notes: as for B2
With B6, in [8], the Ka amounted to 18200 M⁻¹ and the “stoichiometry N” value stood at 1. In test [9], the Kd came out at 55.5 µM.
